The source of these data is patent publication US8895753B2, “S1P receptor modulating agent” (Meiji Seika Pharma Co., Ltd., priority 2011, dated 2014).

Where “and” joins values, the source holds several entries; their conditions need not be identical. Equal entries are not always repeated.

Test [1] has as its target T1, Human S1P1 receptor (Homo sapiens, UniProt P21453). Briefly: Agonist activity at an S1P1 receptor ([35S]-GTPγS exchange reaction, membrane fractions). The test is classed as biochemical. The conditions noted are these: read-out: EC50, agonist activity at S1P1 receptor (GTP exchange reaction). As for the experimental part:
(§1) By using membrane fractions prepared from a human S1P1 receptor expressing cells (Multispan Ltd.), the agonist activity of each test compound was measured by [^35S]-GTPγS exchange reaction in accordance with a standard procedure (Methods in Molecular Biology, Vol. 552, p 143-151 (2009)), and EC50 (nM) of each test compound was computed.
(In general: Binding of GTPγS marks nucleotide exchange on a G protein.)

The target in the next test is Human S1P3 receptor (Homo sapiens, UniProt Q99500). Briefly: Agonist activity at an S1P3 receptor ([35S]-GTPγS exchange reaction at 1000 nM). The test is classed as biochemical. The note with it: read-out: percent of the maximal agonist activity at S1P3 receptor. As for the experimental part: as §1
Chain of Human S1P3 receptor (Q99500 whole entry): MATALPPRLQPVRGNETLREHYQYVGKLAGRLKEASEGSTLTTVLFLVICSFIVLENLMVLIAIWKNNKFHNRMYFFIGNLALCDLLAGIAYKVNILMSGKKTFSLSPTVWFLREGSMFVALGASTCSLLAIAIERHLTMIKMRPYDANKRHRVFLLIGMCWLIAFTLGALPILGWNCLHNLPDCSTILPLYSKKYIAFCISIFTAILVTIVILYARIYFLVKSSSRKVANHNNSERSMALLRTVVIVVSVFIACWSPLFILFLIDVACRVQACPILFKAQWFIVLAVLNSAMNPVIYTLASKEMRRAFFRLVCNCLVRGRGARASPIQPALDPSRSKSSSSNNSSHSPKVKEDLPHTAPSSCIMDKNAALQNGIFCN
By using membrane fractions prepared from Human S1P3 receptor expressing cells (Multispan Inc.), the agonist activity of the compound in the present invention was measured by a [^35S]-GTPγS exchange reaction at 1000 nM by the similar method of the Experimental Example 2.

For test [2], the target named is T1, Human S1P1 receptor. Briefly: Agonist activity at an S1P1 receptor (reporter assay, EDG1-bla/U2OS cells). The class given is cell-based. The conditions noted are these: S1P maximum response = 100%. Further details: host or cells: U2OS (EDG1-bla/U2OS). As for the experimental part:
Human S1P1 receptor gene recombinant EDG1-bla/U2OS cells (Life Technologies Japan Ltd.) were plated in a 96-well half-sized clear bottom black plate at a density of 10000 cells/32 μL/well, and then the plate was incubated at 37° C. in a 5% CO2 incubator for 48 hours. A culture medium containing each test compound prepared as a 5× concentrate was added at 8 μL/well, and the plate was incubated at 37° C. in a 5% CO2 incubator for 5 hours. The substrate (LiveBLAzer™-FRET B/G substrate (CCF4-AM), Life Technologies Japan Ltd.) prepared as a 6× concentrate was added at 8 μL into each well, and the plate was incubated at room temperature for 2 hours in the dark. The fluorescence intensity of each well was detected using a bottom-reading fluorescence microplate reader (EnVision: ParkinElmer) at one excitation wavelength and 2 wavelengths for fluorescence emission (Ex409 nm, Em460 nm, Em530 nm). The intensity ratio of fluorescence at 460 nm/530 nm was calculated for each well. The maximum response ratio confirmed from the dose response of SIP was expressed as 100%. The concentration of a test compound required to stimulate 50% of its maximal activation was computed as EC50 (nM).
Background: In a reporter assay the amount or activity of a reporter protein is the signal.

Another test addresses T2, Human S1P4 receptor (Homo sapiens, UniProt O95977).
T2 sequence (O95977 1-384): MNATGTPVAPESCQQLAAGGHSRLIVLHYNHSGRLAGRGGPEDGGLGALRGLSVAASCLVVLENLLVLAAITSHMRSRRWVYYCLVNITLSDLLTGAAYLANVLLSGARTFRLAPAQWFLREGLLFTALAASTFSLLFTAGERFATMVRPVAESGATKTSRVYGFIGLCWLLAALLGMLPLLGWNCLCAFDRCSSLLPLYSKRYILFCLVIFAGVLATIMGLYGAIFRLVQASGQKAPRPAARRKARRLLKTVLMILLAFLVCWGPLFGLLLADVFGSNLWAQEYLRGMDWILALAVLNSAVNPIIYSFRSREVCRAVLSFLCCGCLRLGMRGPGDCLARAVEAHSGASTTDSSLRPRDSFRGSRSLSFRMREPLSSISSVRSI
Briefly: Agonist activity at an S1P4 receptor (calcium influx). The conditions noted are these: at 1000 nM; read-out: activity at S1P4 receptor (elevation of intracellular calcium). The class given is cell-based. As for the experimental part:
By using Human S1P4 receptor expressing cells (Multispan Inc. CG1052-1), the elevation of intracellular calcium concentration via agonist activity by the addition of 1000 nM was measured by Fret method (fluorescence resonance energy transfer).
For orientation: Calcium flux is commonly read through the fluorescence of an indicator in the cells.

T1 sequence (P21453 whole entry): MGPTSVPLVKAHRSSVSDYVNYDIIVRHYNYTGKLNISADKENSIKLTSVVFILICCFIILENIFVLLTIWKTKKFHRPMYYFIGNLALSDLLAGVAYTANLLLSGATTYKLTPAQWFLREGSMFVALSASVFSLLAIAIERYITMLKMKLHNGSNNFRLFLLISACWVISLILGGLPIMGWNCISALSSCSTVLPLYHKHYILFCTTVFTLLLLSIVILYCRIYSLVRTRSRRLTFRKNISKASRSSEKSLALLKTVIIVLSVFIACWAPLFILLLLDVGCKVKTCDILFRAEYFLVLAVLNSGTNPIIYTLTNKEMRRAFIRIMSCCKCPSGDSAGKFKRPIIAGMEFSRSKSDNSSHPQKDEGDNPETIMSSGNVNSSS

As a reminder, the EC50 is the concentration that produces a half-maximal response. On to `CC(C)Oc1ccc(-c2cnc(-c3ccc(CN4CC(C(=O)O)C4)cc3Cl)s2)cc1` [Example 12, 1-(3-chloro-4-(5-(4-isopropoxyphenyl)thiazol-2-yl)benzyl)azetidine-3-carboxylic acid], for which the EC50 at Human S1P1 receptor [1] was at most 50 nM; on Human S1P1 receptor [2], at most 10 nM. Besides, the Emax at 1 µM at Human S1P3 receptor is 20 to 50%. Besides, the activation at 1 µM at Human S1P4 receptor was below 20%.
The matching figures for `CC(C)Oc1ccc(-c2cnc(-c3ccc(CN4CC(C(=O)O)C4)cc3)s2)c(C(F)(F)F)c1` [Example 55, 1-(4-(5-(4-isopropoxy-2-(trifluoromethyl)phenyl)thiazol-2-yl)benzyl)azetidine-3-carboxylic acid]: at most 500 nM, at most 10 nM, below 20% and below 20%.
The corresponding values for `CCCCc1ccc(-c2cnc(-c3ccc(CN4CC(C(=O)O)C4)cc3)s2)cc1` [Example 47, 1-(4-(5-(4-butylphenyl)thiazol-2-yl)benzyl)azetidine-3-carboxylic acid] are at most 50 nM, at most 10 nM, below 20% and below 20%.
In the case of `Cc1cc(OC(C)C)ccc1-c1cnc(-c2ccc(CN3CC(C(=O)O)C3)cc2)s1` [Example 54, 1-(4-(5-(4-isopropoxy-2-methylphenyl)thiazol-2-yl)benzyl)azetidine-3-carboxylic acid], the EC50 at Human S1P1 receptor [2] was at most 100 nM.
With `CC(C)Oc1ccc(-c2cnc(-c3ccc(C(C)N4CC(C(=O)O)C4)cc3)s2)cc1` (centres unmarked) [Example 8, 1-(1-(4-(5-(4-isopropoxyphenyl)thiazol-2-yl)phenyl)ethyl)azetidine-3-carboxylic acid], the EC50 on Human S1P1 receptor [1] was at most 100 nM; at Human S1P1 receptor [2], ≤ 10 nM and 6.58 nM. Besides, the activation at 1 µM on Human S1P4 receptor was below 20%.
Turning to `CC(C)Oc1ccc(-c2cnc(-c3ccc(CN4CC(C(=O)O)C4)c(C4CC4)c3)s2)cc1` [Example 24, 1-(2-cyclopropyl-4-(5-(4-isopropoxyphenyl)thiazol-2-yl)benzyl)azetidine-3-carboxylic acid], the concentration giving a half-maximal response (EC50) at Human S1P1 receptor [2] was at most 100 nM.
On the same count and under the same terms, under `CCCCc1cc(CN2CC(C(=O)O)C2)ccc1-c1ncc(-c2ccc(OC(C)C)cc2)s1` [Example 13, 1-(3-butyl-4-(5-(4-isopropoxyphenyl)thiazol-2-yl)benzyl)azetidine-3-carboxylic acid] stands at most 100 nM; under `CC(C)Oc1ccc(-c2cnc(-c3ccc(CN4CC(C(=O)O)C4)c(C(F)(F)F)c3)s2)cc1` [Example 27, 1-(4-(5-(4-isopropoxyphenyl)thiazol-2-yl)-2-(trifluoromethyl)benzyl)azetidine-3-carboxylic acid], at most 100 nM.
With `CCCCCCc1ccc(-c2cnc(-c3ccc(CN4CC(C(=O)O)C4)cc3)s2)cc1` [Example 35, 1-(4-(5-(4-hexylphenyl)thiazol-2-yl)benzyl)azetidine-3-carboxylic acid], the concentration giving a half-maximal response (EC50) at Human S1P1 receptor [2] was at most 500 nM.
On the same count and under the same terms, as for `O=C(O)C1CN(Cc2ccc(-c3ncc(-c4ccc(OC5CC5)cc4)s3)cc2)C1` [Example 16, 1-(4-(5-(4-cyclopropoxyphenyl)thiazol-2-yl)benzyl)azetidine-3-carboxylic acid], the figure is at most 100 nM.
With `CCc1cc(CN2CC(C(=O)O)C2)ccc1-c1ncc(-c2ccc(OC(C)C)cc2)s1` [Example 15, 1-(3-ethyl-4-(5-(4-isopropoxyphenyl)thiazol-2-yl)benzyl)azetidine-3-carboxylic acid], the Emax at 1 µM on Human S1P3 receptor is below 20%. Further, at Human S1P1 receptor [2], the EC50 is at most 10 nM. Further, the activation at 1 µM at Human S1P4 receptor is below 20%.
At Human S1P1 receptor [2], `O=C(O)C1CN(Cc2ccc(-c3ncc(-c4ccc(OC5CCCC5)cc4)s3)cc2)C1` [Example 41, 1-(4-(5-(4-(cyclopentyloxy)phenyl)thiazol-2-yl)benzyl)azetidine-3-carboxylic acid] gave a 50% effective concentration (EC50) of at most 100 nM.
In the case of `O=C(O)C1CN(Cc2ccc(-c3ncc(-c4ccc(OC5CCCCC5)cc4)s3)cc2)C1` [Example 43, 1-(4-(5-(4-(cyclohexyloxy)phenyl)thiazol-2-yl)benzyl)azetidine-3-carboxylic acid], the EC50 at Human S1P1 receptor [2] was at most 100 nM.
The same measure, in the same setting: under `CC(C)Oc1ccc(-c2cnc(-c3ccc(CN4CCC(C(=O)O)CC4)cc3)s2)cc1` [Example 5, 1-(4-(5-(4-isopropoxyphenyl)thiazol-2-yl)benzyl)piperidine-4-carboxylic acid] stands at most 500 nM; under `CCCCOc1ccc(-c2cnc(-c3ccc(CN4CC(C(=O)O)C4)cc3)s2)cc1` [Example 39, 1-(4-(5-(4-butoxyphenyl)thiazol-2-yl)benzyl)azetidine-3-carboxylic acid], at most 100 nM.
`CC(C)Oc1ccc(-c2cnc(-c3ccc(CN4CC(C(=O)O)C4)cc3F)s2)cc1` [Example 17, 1-(3-fluoro-4-(5-(4-isopropoxyphenyl)thiazol-2-yl)benzyl)azetidine-3-carboxylic acid]: the EC50 was at most 50 nM at Human S1P1 receptor [1] and at most 10 nM at Human S1P1 receptor [2]. For the same compound, the activation at 1 µM on Human S1P4 receptor was below 20%.
`COc1cc(-c2ncc(-c3ccc(OC(C)C)cc3)s2)ccc1CN1CC(C(=O)O)C1` [Example 26, 1-(4-(5-(4-isopropoxyphenyl)thiazol-2-yl)-2-methoxybenzyl)azetidine-3-carboxylic acid] showed a half-maximal effective concentration (EC50) at Human S1P1 receptor [2] of at most 100 nM.
Same read-out and setting: under `CC(C)(C)c1ccc(-c2cnc(-c3ccc(CN4CC(C(=O)O)C4)cc3)s2)cc1` [Example 33, 1-(4-(5-(4-tert-butylphenyl)thiazol-2-yl)benzyl)azetidine-3-carboxylic acid] stands at most 100 nM.
The same measure, in the same setting: under `CCc1cc(-c2ncc(-c3ccc(OC(C)C)cc3)s2)ccc1CN1CC(C(=O)O)C1` [Example 20, 1-(2-ethyl-4-(5-(4-isopropoxyphenyl)thiazol-2-yl)benzyl)azetidine-3-carboxylic acid] stands at most 100 nM.
Consider `Cc1cc(-c2ncc(-c3ccc(OC(C)C)cc3)s2)ccc1CN1CC(C(=O)O)C1` [Example 25, 1-(4-(5-(4-isopropoxyphenyl)thiazol-2-yl)-2-methylbenzyl)azetidine-3-carboxylic acid], for which the EC50 at Human S1P1 receptor [2] was at most 10 nM.
Still for that read-out and setting: as for `CC(C)Oc1ccc(-c2cnc(-c3ccc(CN4CC(C(=O)O)C4)cc3C3CC3)s2)cc1` [Example 14, 1-(3-cyclopropyl-4-(5-(4-isopropoxyphenyl)thiazol-2-yl)benzyl)azetidine-3-carboxylic acid], the figure is at most 10 nM; as for `CCCCCc1ccc(-c2cnc(-c3ccc(CN4CC(C(=O)O)C4)cc3)s2)cc1` [Example 49, 1-(4-(5-(4-pentylphenyl)thiazol-2-yl)benzyl)azetidine-3-carboxylic acid], at most 100 nM; as for `CCCCCOc1ccc(-c2cnc(-c3ccc(CN4CC(C(=O)O)C4)cc3)s2)cc1` [Example 40, 1-(4-(5-(4-pentyloxyphenyl)thiazol-2-yl)benzyl)azetidine-3-carboxylic acid], at most 500 nM.
`CC(C)Oc1ccc(-c2cnc(-c3ccc(CN4CC(c5nn[nH]n5)C4)cc3)s2)cc1` [Example 4, 2-(4-((3-(2H-tetrazol-5-yl)azetidin-1-yl)methyl)phenyl)-5-(4-isopropoxyphenyl)thiazole]: the 50% effective concentration (EC50) at Human S1P1 receptor [2] is ≤ 100 nM and 87.1 nM.
For `CC(C)Oc1cccc(-c2cnc(-c3ccc(CN4CC(C(=O)O)C4)cc3)s2)c1` [Example 7, 1-(4-(5-(3-isopropoxyphenyl)thiazol-2-yl)benzyl)azetidine-3-carboxylic acid], on Human S1P1 receptor [2], the EC50 was ≤ 100 nM and 72.6 nM.
The compound `COc1cc(CN2CC(C(=O)O)C2)ccc1-c1ncc(-c2ccc(OC(C)C)cc2)s1` [Example 18, 1-(4-(5-(4-isopropoxyphenyl)thiazol-2-yl)-3-methoxybenzyl)azetidine-3-carboxylic acid] showed an EC50 at Human S1P1 receptor [2] of at most 500 nM.
